Tests used:
[1] = target: human TYK2 (JH2domain-pseudokinase) (Homo sapiens (Human), UniProt P29597); experiment: TYK2 JH2 Domain Binding Assay (KINOMEscan); conditions: 11-point 3-fold dilution, top concentration 30,000 nM, duplicate
Outline: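 Competition binding used an NFkB-DNA-tagged fusion of TYK2 JH2 (G556–D888) expressed in HEK293 extracts against an immobilised ligand, 1 h at room temperature. Bead-bound kinase was quantified by qPCR. Kd came from an 11-point 3-fold series with a 30,000 nM top concentration and 0.9% DMSO, Hill slope −1, run in duplicate.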

JAK2 kinase domain (JH1) = JAK2 kinase domain (JH1) (Homo sapiens (Human), UniProt O60674); experiment: JAK2 Radioactive Kinase Assay; format: biochemical; conditions: compound at 10 μM; ATP at 10 μM; substrate poly[Glu:Tyr](4:1)
Description: (§1) Peptide substrate, [KKSRGDYMTMQIG], (20 μM) was prepared in reaction buffer (20 mM Hepes pH 7.5, 10 mM MgCl2, 1 mM EGTA, 0.02% Brij35, 0.02 mg/mL BSA, 0.1 mM […], 2 mM DTT, 1% DMSO). TYK2 (Invitrogen) kinase was added, followed by compounds in DMSO. ^33PATP was added to initiate the reaction in ATP at 10 μM. The kinase reaction was incubated for 120 min at room temp and reactions were spotted onto P81 ion exchange paper (Whatman #3698-915), and then washed extensively in 0.75% phosphoric acid, prior to reading the radioactivity counts. For JAK2 (Invitrogen) kinase assay the peptide substrate poly[Glu:Tyr](4:1), 0.2 mg/ml was used, in the reaction carried out the same as for TYK2.
(§2) The TYK2 and JAK2 radioactive kinase assay measures the percent inhibition at the TYK2 kinase domain (JH1) and the percent inhibition at the JAK2 kinase domain (JH1). Results of the assay are expressed as percent inhibition at 10 μM.

[2] = test system: GM-CSF induced STAT5 phopsphorylation mediated by the JAK2/JAK2 homodimeric complex; experiment: GM-CSF Induced pSTAT5 in Human PBMC; format: cell-based; conditions: 20 min, GM-CSF 5 ng/mL for 20 minutes, read-out: PBMC_GMCSF_pSTAT5 IC50
Description: (§3) Human PBMC were isolated from buffy coat and were stored frozen for assays as needed. Cells for assay were thawed and resuspended in complete media containing serum, then cells were diluted to 1.67 E6 cells/mL so that 120 μl per well is 200,000 cells. 15 μl of compound or DMSO was added to the well at the desired concentrations and incubated at 1 hr at 37 C. 15 μl of stimulus (final concentration of 1.7 ng/mL IL-12) was added for 30 minutes prior to pSTAT4 and total STAT4 analysis using cell lysates prepared and analyzed by MSD reagents as per manufacturer protocol. The final DMSO concentration of compound in the assay was 0.1%.
Cells were prepared for analysis as in the above procedure and 15 μl of GM-CSF (final concentration 5 ng/mL) was added for 20 minutes prior to pSTAT5 and total STAT5 analysis using cell lysates prepared and analyzed by MSD reagents as per manufacturer protocol. The final DMSO concentration of compound in the assay was 0.1%.
The GM-CSF Induced pSTAT5 assay is a JAK2 cellular selectivity assay which evaluates inhibition of GM-CSF induced STAT5 phopsphorylation mediated by the JAK2/JAK2 homodimeric complex.

[3] = test system: IL-12 induced STAT4 phophorylation mediated by TYK2/JAK2 (heterodimeric complex); experiment: IL-12 Induced pSTAT4 in Human PBMC; format: cell-based; conditions: 1.7 ng/mL IL-12 for 30 minutes, 1 hr compound preincubation
Description: as §3
The IL-12 Induced pSTAT4 assay evaluates the inhibition of IL-12 induced STAT4 phophorylation mediated by TYK2/JAK2 (heterodimeric complex).

TYK2 kinase domain (JH1) = TYK2 kinase domain (JH1) (Homo sapiens (Human), UniProt P29597); experiment: TYK2 Radioactive Kinase Assay; format: biochemical; conditions: compound at 10 μM; ATP at 10 μM; 120 min at room temp
Description: as §1, §2

Sequence of TYK2 kinase domain (JH1) (P29597 897-1176): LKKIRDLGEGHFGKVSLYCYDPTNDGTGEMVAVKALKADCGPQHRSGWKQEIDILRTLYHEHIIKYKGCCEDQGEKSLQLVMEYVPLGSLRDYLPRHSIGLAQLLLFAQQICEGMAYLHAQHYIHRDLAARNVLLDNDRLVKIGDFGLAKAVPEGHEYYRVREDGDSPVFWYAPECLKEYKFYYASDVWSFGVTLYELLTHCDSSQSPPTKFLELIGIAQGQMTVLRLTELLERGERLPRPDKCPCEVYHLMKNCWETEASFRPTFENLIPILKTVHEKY
Sequence of human TYK2 (JH2domain-pseudokinase) (P29597 556-888): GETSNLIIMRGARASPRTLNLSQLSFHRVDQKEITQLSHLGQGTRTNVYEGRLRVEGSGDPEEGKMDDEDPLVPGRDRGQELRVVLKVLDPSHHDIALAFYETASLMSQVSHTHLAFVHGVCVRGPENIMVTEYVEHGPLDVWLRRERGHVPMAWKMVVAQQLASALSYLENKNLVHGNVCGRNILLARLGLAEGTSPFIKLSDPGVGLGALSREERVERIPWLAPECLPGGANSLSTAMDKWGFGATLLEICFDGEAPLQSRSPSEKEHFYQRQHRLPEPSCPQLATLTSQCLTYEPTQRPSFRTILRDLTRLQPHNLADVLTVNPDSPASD
Sequence of JAK2 kinase domain (JH1) (O60674 849-1124): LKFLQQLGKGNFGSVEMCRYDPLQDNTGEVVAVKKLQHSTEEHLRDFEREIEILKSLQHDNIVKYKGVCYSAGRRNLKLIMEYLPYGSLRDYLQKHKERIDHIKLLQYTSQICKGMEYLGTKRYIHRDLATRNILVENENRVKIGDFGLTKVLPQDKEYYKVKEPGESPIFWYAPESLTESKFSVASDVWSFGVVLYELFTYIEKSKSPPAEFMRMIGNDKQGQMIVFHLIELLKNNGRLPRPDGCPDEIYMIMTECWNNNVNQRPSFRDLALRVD

| Structure (SMILES) | Kd [1] [nM] | inhibition at 10 µM (JAK2 kinase domain (JH1)) [%] | IC50 [2] [nM] | IC50 [3] [nM] | inhibition at 10 µM (TYK2 kinase domain (JH1)) [%] |
| --- | --- | --- | --- | --- | --- |
| CNC(=O)c1cnc(NC(=O)C2CC2)c2[nH]c(-c3ccccc3)cc12 [Compound I-1, 7-(cyclopropanecarboxamido)-N-methyl-2-phenyl-1H-pyrrolo[2,3-c]pyridine-4-carboxamide] | 1 to 10 | < 50 | > 50000 | 500 to 1000 | < 50 |
| CNC(=O)c1cnc(NC(=O)C2CC2)c2[nH]c(-c3cccc(-c4ncn(C)n4)c3)cc12 [Compound I-2, 7-(cyclopropanecarboxamido)-N-methyl-2-(3-(1-methyl-1H-1,2,4-triazol-3-yl)phenyl)-1H-pyrrolo[2,3-c]pyridine-4-carboxamide] | < 0.2 | < 50 | > 50000 | < 100 | < 50 |
| CNC(=O)c1cnc(NC(=O)C2CC2)c2[nH]c(-c3ccccc3N3CCCS3(=O)=O)cc12 [Compound I-4, 7-(cyclopropanecarboxamido)-2-(2-(1,1-dioxidoisothiazolidin-2-yl)phenyl)-N-methyl-1H-pyrrolo[2,3-c]pyridine-4-carboxamide] | < 0.2 | < 50 | > 12500 | < 100 | < 50 |
| Cn1cnc(-c2cccc(-c3cc4c(C(N)=O)cnc(NC(=O)C5CC5)c4[nH]3)c2)n1 [Compound I-12, 7-(cyclopropanecarboxamido)-2-(3-(1-methyl-1H-1,2,4-triazol-3-yl)phenyl)-1H-pyrrolo[2,3-c]pyridine-4-carboxamide] | < 0.2 | > 90 | > 300 | < 100 | > 90 |
| CNC(=O)c1cnc(NC(=O)C2CC2)c2[nH]c(-c3cccc(-c4cnn(C)c4)c3F)cc12 [Compound I-19, 7-(cyclopropanecarboxamido)-2-(2-fluoro-3-(1-methyl-1H-pyrazol-4-yl)phenyl)-N-methyl-1H-pyrrolo[2,3-c]pyridine-4-carboxamide] | < 0.2 | < 50 | > 300 | < 100 | < 50 |
| CNC(=O)c1cnc(NC(=O)C2CC2)c2[nH]c(-c3cccc(-c4ncco4)c3F)cc12 [Compound I-23, 7-(cyclopropanecarboxamido)-2-(2-fluoro-3-(oxazol-2-yl)phenyl)-N-methyl-1H-pyrrolo[2,3-c]pyridine-4-carboxamide] | < 0.2 | < 50 | > 50000 | < 100 | < 50 |
| CNC(=O)c1cnc(NC(=O)C2CC2)c2[nH]c(-c3ccc(C(=O)N4CCC4)cc3OC)cc12 [Compound I-24, 2-(4-(azetidine-1-carbonyl)-2-methoxyphenyl)-7-(cyclopropanecarboxamido)-N-methyl-1H-pyrrolo[2,3-c]pyridine-4-carboxamide] | < 0.2 | < 50 | – | < 100 | < 50 |
| CNC(=O)c1cnc(NC(=O)C2CC2)c2[nH]c(-c3ccc(=O)n(C4CC4)c3)cc12 [Compound I-40, 7-(cyclopropanecarboxamido)-2-(1-cyclopropyl-6-oxo-1,6-dihydropyridin-3-yl)-N-methyl-1H-pyrrolo[2,3-c]pyridine-4-carboxamide] | 1 to 10 | < 50 | – | – | < 50 |
| CNC(=O)c1cnc(NC(=O)C2CC2)c2[nH]c(-c3ccc(C(=O)N4CCC4)cc3F)cc12 [Compound I-42, 2-(4-(azetidine-1-carbonyl)-2-fluorophenyl)-7-(cyclopropanecarboxamido)-N-methyl-1H-pyrrolo[2,3-c]pyridine-4-carboxamide] | < 0.2 | – | – | < 100 | – |
| CNC(=O)c1cnc(NC(=O)C2CC2)c2[nH]c(-c3cccc(-c4cn(C)cn4)c3F)cc12 [Compound I-48, 7-(cyclopropanecarboxamido)-2-(2-fluoro-3-(1-methyl-1H-imidazol-4-yl)phenyl)-N-methyl-1H-pyrrolo[2,3-c]pyridine-4-carboxamide] | < 0.2 | – | – | < 100 | – |
| CNC(=O)c1cnc(NC(=O)C2CC2)c2[nH]c(-c3cccc(-c4nnn(C)n4)c3F)cc12 [Compound I-52, 7-(cyclopropanecarboxamido)-2-(2-fluoro-3-(2-methyl-2H-tetrazol-5-yl)phenyl)-N-methyl-1H-pyrrolo[2,3-c]pyridine-4-carboxamide] | < 0.2 | – | – | < 100 | – |
| CNC(=O)c1cnc(NC(=O)C2CC2)c2[nH]c(-c3cccn(-c4ncc(C)s4)c3=O)cc12 [Compound I-54, 7-(cyclopropanecarboxamido)-N-methyl-2-(1-(5-methylthiazol-2-yl)-2-oxo-1,2-dihydropyridin-3-yl)-1H-pyrrolo[2,3-c]pyridine-4-carboxamide] | < 0.2 | – | – | 100 to 500 | – |
